Experimental data reported in patent US8680159B2, “Bradykinin 1 receptor modulating compounds” (Gruenenthal GmbH, priority 2010, dated 2014).
Where two headings read alike, the source gives them in different places.

Tests used:
[1] = molecular target: T1, human B1R receptor (CHO K1 cells stably transfected with the human B1R gene) (Homo sapiens, UniProt P46663); experiment: Functional study on the bradykinin receptor 1 (B1R), Ca2+ fluorescence (Fluo-4) FLIPR/Novostar assay, hB1R cells; assay type: cell-based
T1 construct: expressed in transfected cells; host or cells: CHO K1 cells (Chinese hamster ovary), stably transfected
T1 sequence (P46663 1-353): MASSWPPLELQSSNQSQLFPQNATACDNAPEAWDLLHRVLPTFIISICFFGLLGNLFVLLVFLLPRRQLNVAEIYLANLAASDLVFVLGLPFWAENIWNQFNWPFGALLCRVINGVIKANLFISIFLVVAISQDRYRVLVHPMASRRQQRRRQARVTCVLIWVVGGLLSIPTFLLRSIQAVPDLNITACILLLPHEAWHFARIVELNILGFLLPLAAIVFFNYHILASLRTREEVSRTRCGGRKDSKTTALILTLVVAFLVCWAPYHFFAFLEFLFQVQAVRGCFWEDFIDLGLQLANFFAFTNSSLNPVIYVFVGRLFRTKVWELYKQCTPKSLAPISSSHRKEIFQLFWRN
Procedure, shortened: (§1)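 Stably transfected CHO K1 cells carrying human or rat B1R were Fluo-4 loaded and Ca2+ fluorescence read by FLIPR or Novostar. Compounds were added first at 10 μM for % activation, then the EC80 agonist was applied after 6-20 min (human: Lys-Des-Arg9-bradykinin; rat: Des-Arg9-bradykinin). % inhibition is relative to maximum achievable inhibition, and IC50 comes from concentration series.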

[2] = molecular target: T2, B1R receptor of the rat (CHO K1 cells stably transfected with the B1R gene of the rat) (Rattus norvegicus, UniProt P97583); experiment: Functional study on the bradykinin receptor 1 (B1R), Ca2+ fluorescence (Fluo-4) FLIPR/Novostar assay, rB1R cells; assay type: cell-based; details: for inhibition at 10 µM: CHO-K1, 10 μM, read-out: % Inhibition (r-B1R) at 10 μM
T2 construct: expressed in transfected cells; host or cells: CHO K1 cells (Chinese hamster ovary), stably transfected
T2 sequence (P97583 1-337): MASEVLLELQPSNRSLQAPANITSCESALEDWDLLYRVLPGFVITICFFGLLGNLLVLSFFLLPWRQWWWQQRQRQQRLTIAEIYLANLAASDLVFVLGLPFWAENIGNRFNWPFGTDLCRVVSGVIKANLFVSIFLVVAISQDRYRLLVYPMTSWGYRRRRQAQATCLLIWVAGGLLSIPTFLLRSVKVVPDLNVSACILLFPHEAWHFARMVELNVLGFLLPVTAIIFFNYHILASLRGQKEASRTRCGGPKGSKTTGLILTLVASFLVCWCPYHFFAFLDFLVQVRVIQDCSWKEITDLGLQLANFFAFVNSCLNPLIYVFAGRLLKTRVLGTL
Procedure, shortened: as §1

[3] = CHO-K1, read-out: % Inhibition (h-B1R) at 10 μM
[4] = CHO-K1, read-out: % inhibition (human B1R) at 10 μM

Structure (SMILES)	inhibition at 10 µM [1, 3]	inhibition at 10 µM [2]	% Inhibition (r-B1R) at 10 μM [2]	inhibition at 10 µM [1, 4]
CN(C(=O)c1ccc2c(c1)C(NC(=O)c1cccc(Cl)c1Cl)CCC2)C1CCN(c2ccncc2)CC1 (centres unmarked) [CC_H-03, 8-[(2,3-Dichloro-benzoyl)amino]-N-methyl-N-(1-pyridin-4-yl-piperidin-4-yl)-5,6,7,8-tetrahydro-naphthalene-2-carboxylic acid amide]	99%	103%	–	–
CN(C(=O)c1ccc2c(c1)C(NC(=O)c1cc(F)ccc1Cl)CCC2)C1CCN(c2ccncc2)CC1 (centres unmarked) [CC_H-04, 8-[(2-Chloro-5-fluoro-benzoyl)amino]-N-methyl-N-(1-pyridin-4-yl-piperidin-4-yl)-5,6,7,8-tetrahydro-naphthalene-2-carboxylic acid amide]	99%	–	104%	–
CN(C(=O)c1ccc2c(c1)C(NC(=O)C1CCCCC1)CCC2)C1CCN(c2ccncc2)CC1 (centres unmarked) [CC_H-05, 8-(Cyclohexanecarbonylamino)-N-methyl-N-(1-pyridin-4-yl-piperidin-4-yl)-5,6,7,8-tetrahydro-naphthalene-2-carboxylic acid amide]	98%	103%	–	–
CN(C(=O)c1ccc2c(c1)C(NC(=O)CCC1CCCC1)CCC2)C1CCN(c2ccncc2)CC1 (centres unmarked) [CC_H-06, 8-(3-Cyclopentyl-propanoylamino)-N-methyl-N-(1-pyridin-4-yl-piperidin-4-yl)-5,6,7,8-tetrahydro-naphthalene-2-carboxylic acid amide]	100%	104%	–	–
CN(C(=O)c1ccc2c(c1)C(NC(=O)c1sccc1Cl)CCC2)C1CCN(c2ccncc2)CC1 (centres unmarked) [CC_H-07, 3-Chloro-N-[7-[methyl-(1-pyridin-4-yl-piperidin-4-yl)-carbamoyl]-1,2,3,4-tetrahydro-naphthalen-1-yl]-thiophene-2-carboxylic acid amide]	99%	103%	–	–
CN(C(=O)c1ccc2c(c1)C(NC(=O)c1cncnc1)CCC2)C1CCN(c2ccncc2)CC1 (centres unmarked) [CC_H-08, N-[7-[Methyl-(1-pyridin-4-yl-piperidin-4-yl)-carbamoyl]-1,2,3,4-tetrahydro-naphthalen-1-yl]-pyrimidine-5-carboxylic acid amide]	99%	104%	–	–
Cc1cccc(C)c1C(=O)NC1CCCc2ccc(C(=O)N(C)C3CCN(c4ccncc4)CC3)cc21 (centres unmarked) [CC_H-09, 8-[(2,6-Dimethyl-benzoyl)amino]-N-methyl-N-(1-pyridin-4-yl-piperidin-4-yl)-5,6,7,8-tetrahydro-naphthalene-2-carboxylic acid amide]	99%	103%	–	–
CN(C(=O)c1ccc2c(c1)C(NC(=O)c1c(Cl)cccc1C(F)(F)F)CCC2)C1CCN(c2ccncc2)CC1 (centres unmarked) [CC_H-11, 8-[[2-Chloro-6-(trifluoromethyl)-benzoyl]amino]-N-methyl-N-(1-pyridin-4-yl-piperidin-4-yl)-5,6,7,8-tetrahydro-naphthalene-2-carboxylic acid amide]	99%	103%	–	–
CN(C(=O)c1ccc2c(c1)C(NC(=O)c1cnccc1C(F)(F)F)CC2(C)C)C1CCN(c2ccncc2)CC1 (centres unmarked) [CC_H-12, N-[3,3-Dimethyl-6-[methyl-(1-pyridin-4-yl-piperidin-4-yl)-carbamoyl]-1,2-dihydro-inden-1-yl]-4-(trifluoromethyl)-pyridine-3-carboxylic acid amide]	100%	104%	–	–
CN(C(=O)c1ccc2c(c1)CCC2NC(=O)c1sccc1Cl)C1CCN(c2ccncc2)CC1 (centres unmarked) [CC_H-13, 3-Chloro-N-[5-[methyl-(1-pyridin-4-yl-piperidin-4-yl)-carbamoyl]-2,3-dihydro-1H-inden-1-yl]-thiophene-2-carboxylic acid amide]	100%	78%	–	–
CN(C(=O)c1ccc2c(c1)C(NC(=O)C1CCCCC1)CC2(C)C)C1CCN(c2ccncc2)CC1 (centres unmarked) [CC_H-14, 3-(Cyclohexanecarbonylamino)-N,1,1-trimethyl-N-(1-pyridin-4-yl-piperidin-4-yl)-2,3-dihydro-indene-5-carboxylic acid amide]	99%	104%	–	–
CN(C(=O)NC1CC(C)(C)c2ccc(C(=O)N(C)C3CCN(c4ccncc4)CC3)cc21)c1ccccc1Cl (centres unmarked) [CC_H-15, 3-[[(2-Chlorophenyl)-methyl-carbamoyl]amino]-N,1,1-trimethyl-N-(1-pyridin-4-yl-piperidin-4-yl)-2,3-dihydro-indene-5-carboxylic acid amide]	99%	101%	–	–
CN(C(=O)c1ccc2c(c1)C(NS(=O)(=O)c1c(Cl)cccc1C(F)(F)F)CCC2)C1CCN(c2ccncc2)CC1 (centres unmarked) [CC_H-16, 8-[[[2-Chloro-6-(trifluoromethyl)-phenyl]sulfonyl]amino]-N-methyl-N-(1-pyridin-4-yl-piperidin-4-yl)-5,6,7,8-tetrahydro-naphthalene-2-carboxylic acid amide]	99%	104%	–	–
CN(C(=O)c1ccc2c(c1)C(NC(=O)c1c(Cl)cccc1C(F)(F)F)CC2(C)C)C1CCN(c2ccncc2)CC1 (centres unmarked) [CC_H-17, 3-[[2-Chloro-6-(trifluoromethyl)-benzoyl]amino]-N,1,1-trimethyl-N-(1-pyridin-4-yl-piperidin-4-yl)-2,3-dihydro-indene-5-carboxylic acid amide]	98%	–	104%	–
CN(C(=O)c1ccc2c(c1)C(NC(=O)CCC1CCCC1)CC2(C)C)C1CCN(c2ccncc2)CC1 (centres unmarked) [CC_H-18, 3-(3-Cyclopentyl-propanoylamino)-N,1,1-trimethyl-N-(1-pyridin-4-yl-piperidin-4-yl)-2,3-dihydro-indene-5-carboxylic acid amide]	99%	102%	–	–
CN(C(=O)c1ccc2c(c1)C(NC(=O)c1cccc(Cl)c1Cl)CC2(C)C)C1CCN(c2ccncc2)CC1 (centres unmarked) [CC_H-19, 3-[(2,3-Dichloro-benzoyl)amino]-N,1,1-trimethyl-N-(1-pyridin-4-yl-piperidin-4-yl)-2,3-dihydro-indene-5-carboxylic acid amide]	100%	100%	–	–
CN(C(=O)c1ccc2c(c1)C(NC(=O)c1sccc1Cl)CC2(C)C)C1CCN(c2ccncc2)CC1 (centres unmarked) [CC_H-20, 3-Chloro-N-[3,3-dimethyl-6-[methyl-(1-pyridin-4-yl-piperidin-4-yl)-carbamoyl]-1,2-dihydro-inden-1-yl]-thiophene-2-carboxylic acid amide]	99%	104%	–	–
CN(C(=O)c1ccc2c(c1)C(NC(=O)c1cc(F)ccc1Cl)CC2(C)C)C1CCN(c2ccncc2)CC1 (centres unmarked) [CC_H-21, 3-[(2-Chloro-5-fluoro-benzoyl)amino]-N,1,1-trimethyl-N-(1-pyridin-4-yl-piperidin-4-yl)-2,3-dihydro-indene-5-carboxylic acid amide]	99%	–	104%	–
CN(C(=O)c1ccc2c(c1)C(NC(=O)c1cncnc1)CC2(C)C)C1CCN(c2ccncc2)CC1 (centres unmarked) [CC_H-22, N-[3,3-Dimethyl-6-[methyl-(1-pyridin-4-yl-piperidin-4-yl)-carbamoyl]-1,2-dihydro-inden-1-yl]-pyrimidine-5-carboxylic acid amide]	97%	90%	–	–
CCN(C(=O)C1CCCC1)[C@@H]1CCc2ccc(C(=O)N(C)C3CCN(c4cc(C)nc(C)n4)CC3)cc21 [Example H-229, (3R)-3-(Cyclopentanecarbonyl-ethyl-amino)-N-[1-(2,6-dimethyl-pyrimidin-4-yl)-piperidin-4-yl]-N-methyl-2,3-dihydro-1H-indene-5-carboxylic acid amide]	–	–	–	98%
Cc1cc(N2CCC(N(C)C(=O)c3ccc4c(c3)[C@H](N(C)C(=O)C3CCCC3)CC4)CC2)nc(C)n1 [Example H-230, (3R)-3-(Cyclopentanecarbonyl-methyl-amino)-N-[1-(2,6-dimethyl-pyrimidin-4-yl)-piperidin-4-yl]-N-methyl-2,3-dihydro-1H-indene-5-carboxylic acid amide]	–	–	–	98%
CN(C(=O)c1ccc2c(c1)[C@H](NC(=O)c1ccccc1Cl)CC2)C1CCN(c2ccnc(N)n2)CC1 [Example H-244, (3R)-N-[1-(2-Amino-pyrimidin-4-yl)-piperidin-4-yl]-3-[(2-chloro-benzoyl)amino]-N-methyl-2,3-dihydro-1H-indene-5-carboxylic acid amide]	–	–	–	100%
